Experimental data published in patent publication US12447170B2, “Use of maribavir in treatment regimens” (priority 2021, dated 2025).
Entries after “also recorded” stand apart in the source; their conditions may differ. Where two headings read alike, the source gives them in different places.

Legend:
CYP1A2 mRNA = type: in vitro ADME; conditions: human, hepatocytes, 72 h
Method: (§1) Fresh human hepatocytes were treated with culture medium with maribavir concentrations of 36 μM, 144 μM, and 480 μM. […] Incubation was conducted at 37° C. for 72 hours, with daily replacement of medium with compound. […] Analysis of CYP expression was performed using qPCR with CYP-specific probes.

CYP2B6 mRNA = type: in vitro ADME; conditions: human, hepatocytes, 72 h
Method: as §1

CYP3A = CYP3A (Homo sapiens, UniProt P08684); test: Time-dependent inhibition of CYP3A in HLM (IC50 shift and enzyme inactivation kinetics); type: in vitro ADME; set-up: from tissue; host or cells: human liver microsomes; conditions: human liver microsomes; for kinact: read-out: kinact (maximum enzyme inactivation rate constant), TDI of CYP3A (converted)
Method: Time-dependent inhibition (TDI) potentials for various CYP enzymes were evaluated by a 30 minute pre-incubation of maribavir with HLM in the presence and absence of nicotinamide-adenine dinucleotide […] (NADPH) followed by a CYP enzyme activity assay.
Enzyme inactivation kinetics of maribavir for the TDI of CYP3A, with midazolam and testosterone as probe substrates, was evaluated by pre-incubation of HLM with maribavir at various concentrations with NADPH for six different pre-incubation time frames. CYP3A activity was measured by determining the formation of CYP3A probe metabolite. Inhibitor concentration at half maximal enzyme inactivation (KI), and maximum enzyme inactivation rate constant (kinact), were estimated using non-linear least-square regression.

[1] = PBPK simulation of maribavir with ketoconazole (CYP3A4 inhibitor); set-up: species or system human
Method: A comparison of observed and predicted plasma concentrations of maribavir following a single oral dose of 400 mg administered in the absence of ketoconazole (a CYP3A4 inhibitor) and 1 hour after a single 400 mg dose of ketoconazole to healthy subjects was performed.

[2] = Drug interaction summary: effect of co-administered drugs on maribavir pharmacokinetics (Tables 1-A, 1-B)
From the text: Drug interaction studies were summarized based on Example 2 and other available data (e.g., in vitro and clinical data).

CYP2E1 = target: T1, CYP2E1 (Homo sapiens, UniProt P05181); test: Reversible CYP inhibition in human liver microsomes (HLM); type: in vitro ADME; conditions: up to 100 μM
T1 construct: from tissue; host or cells: human liver microsomes
Method: (§2) HLM were used to evaluate maribavir's half maximal inhibitory concentration (IC50) on inhibition of activities of nine CYP isoforms. Probe substrates were phenacetin (CYP1A2), coumarin (CYP2A6), bupropion (CYP2B6), paclitaxel (CYP2C8), tolbutamide (CYP2C9), (S)-mephenytoin (CYP2C19), dextromethorphan (CYP2D6), clorzoxazone (CYP2E1), and midazolam and testosterone (CYP3A4).
(§3) CYP activities with 0, 0.1, 0.3, 1, 3, 10, 30, and 100 μM of maribavir were evaluated.

CYP2A6 = target: T2, CYP2A6 (Homo sapiens, UniProt P11509); test: as above; type: in vitro ADME; conditions: up to 100 μM
T2 construct: from tissue; host or cells: human liver microsomes
T2 sequence (P11509 1-494): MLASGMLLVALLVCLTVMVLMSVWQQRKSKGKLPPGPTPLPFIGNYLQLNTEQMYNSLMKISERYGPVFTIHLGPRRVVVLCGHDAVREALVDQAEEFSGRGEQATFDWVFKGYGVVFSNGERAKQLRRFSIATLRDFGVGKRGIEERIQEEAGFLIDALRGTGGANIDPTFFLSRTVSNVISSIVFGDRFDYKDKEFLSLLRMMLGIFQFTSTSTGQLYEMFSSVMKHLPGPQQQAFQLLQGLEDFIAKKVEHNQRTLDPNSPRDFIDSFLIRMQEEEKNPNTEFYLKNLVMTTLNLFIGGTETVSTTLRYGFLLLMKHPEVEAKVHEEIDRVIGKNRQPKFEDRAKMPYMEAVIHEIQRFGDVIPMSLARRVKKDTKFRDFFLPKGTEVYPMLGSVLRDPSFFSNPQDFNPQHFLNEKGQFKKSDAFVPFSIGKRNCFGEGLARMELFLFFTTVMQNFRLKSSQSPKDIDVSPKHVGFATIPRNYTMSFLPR
Method: as §2, §3

CYP3A4 = target: T3, CYP3A4 (Homo sapiens, UniProt P08684); test: as above; type: in vitro ADME; conditions: up to 100 μM
T3 construct: from tissue; host or cells: human liver microsomes
Method: as §2, §3

CYP2B6 = target: T4, CYP2B6 (Homo sapiens, UniProt P20813); test: as above; type: in vitro ADME; conditions: up to 100 μM
T4 construct: from tissue; host or cells: human liver microsomes
T4 sequence (P20813 1-491): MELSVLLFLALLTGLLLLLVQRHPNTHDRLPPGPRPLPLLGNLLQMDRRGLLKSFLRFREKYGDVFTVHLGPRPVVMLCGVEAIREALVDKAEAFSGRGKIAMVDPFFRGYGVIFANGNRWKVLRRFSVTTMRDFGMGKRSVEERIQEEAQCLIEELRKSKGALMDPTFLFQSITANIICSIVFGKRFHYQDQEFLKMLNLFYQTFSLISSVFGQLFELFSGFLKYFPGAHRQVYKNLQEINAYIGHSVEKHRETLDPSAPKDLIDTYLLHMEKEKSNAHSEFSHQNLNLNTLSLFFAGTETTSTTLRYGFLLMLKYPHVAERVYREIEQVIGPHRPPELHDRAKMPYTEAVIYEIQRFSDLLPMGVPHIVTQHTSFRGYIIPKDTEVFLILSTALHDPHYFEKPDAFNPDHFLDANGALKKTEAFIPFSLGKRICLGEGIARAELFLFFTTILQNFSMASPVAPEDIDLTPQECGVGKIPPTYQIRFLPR
Method: as §2, §3

clinical = conditions: human, in vivo
[3] = Phase 2 studies for treatment of CMV infection/diseases: safety/tolerability; type: in vivo, human; conditions: doses up to 1200 mg BID
[4] = maribavir 400 mg single dose 1 hour after ketoconazole 400 mg
[5] = Aluminum hydroxide and magnesium hydroxide antacid 20 mL single dose, maribavir 100 mg single dose
[6] = Ketoconazole 400 mg single dose, maribavir 400 mg single dose
[7] = Rifampin 600 mg once daily, maribavir 400 mg twice daily

Chain of CYP3A (P08684 2-503): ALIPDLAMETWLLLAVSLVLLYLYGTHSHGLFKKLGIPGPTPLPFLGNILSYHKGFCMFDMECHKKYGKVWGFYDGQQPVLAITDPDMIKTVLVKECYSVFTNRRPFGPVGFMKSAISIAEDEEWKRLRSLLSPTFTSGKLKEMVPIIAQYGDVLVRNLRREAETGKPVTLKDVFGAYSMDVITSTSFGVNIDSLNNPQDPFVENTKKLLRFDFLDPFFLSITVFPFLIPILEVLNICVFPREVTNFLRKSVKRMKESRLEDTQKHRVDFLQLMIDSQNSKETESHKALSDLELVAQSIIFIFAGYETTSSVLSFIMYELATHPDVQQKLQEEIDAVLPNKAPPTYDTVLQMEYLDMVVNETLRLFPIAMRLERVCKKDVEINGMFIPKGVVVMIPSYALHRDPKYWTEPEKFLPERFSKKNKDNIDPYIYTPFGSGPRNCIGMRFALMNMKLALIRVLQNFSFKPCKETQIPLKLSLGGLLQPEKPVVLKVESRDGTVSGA
T1 sequence (P05181 whole entry): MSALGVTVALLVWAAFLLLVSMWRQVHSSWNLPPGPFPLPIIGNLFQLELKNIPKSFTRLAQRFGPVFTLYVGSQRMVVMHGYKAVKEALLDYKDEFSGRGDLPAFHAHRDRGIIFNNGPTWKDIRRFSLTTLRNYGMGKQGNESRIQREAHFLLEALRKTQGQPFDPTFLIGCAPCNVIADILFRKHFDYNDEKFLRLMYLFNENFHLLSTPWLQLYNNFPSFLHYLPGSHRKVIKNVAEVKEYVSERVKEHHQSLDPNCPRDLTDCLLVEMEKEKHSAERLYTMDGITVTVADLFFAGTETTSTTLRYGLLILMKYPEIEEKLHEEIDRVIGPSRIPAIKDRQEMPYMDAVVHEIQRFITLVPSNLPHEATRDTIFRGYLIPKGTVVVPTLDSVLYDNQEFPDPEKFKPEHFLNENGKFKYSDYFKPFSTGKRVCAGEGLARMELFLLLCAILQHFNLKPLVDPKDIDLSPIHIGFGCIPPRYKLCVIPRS
T3 sequence (P08684 whole entry): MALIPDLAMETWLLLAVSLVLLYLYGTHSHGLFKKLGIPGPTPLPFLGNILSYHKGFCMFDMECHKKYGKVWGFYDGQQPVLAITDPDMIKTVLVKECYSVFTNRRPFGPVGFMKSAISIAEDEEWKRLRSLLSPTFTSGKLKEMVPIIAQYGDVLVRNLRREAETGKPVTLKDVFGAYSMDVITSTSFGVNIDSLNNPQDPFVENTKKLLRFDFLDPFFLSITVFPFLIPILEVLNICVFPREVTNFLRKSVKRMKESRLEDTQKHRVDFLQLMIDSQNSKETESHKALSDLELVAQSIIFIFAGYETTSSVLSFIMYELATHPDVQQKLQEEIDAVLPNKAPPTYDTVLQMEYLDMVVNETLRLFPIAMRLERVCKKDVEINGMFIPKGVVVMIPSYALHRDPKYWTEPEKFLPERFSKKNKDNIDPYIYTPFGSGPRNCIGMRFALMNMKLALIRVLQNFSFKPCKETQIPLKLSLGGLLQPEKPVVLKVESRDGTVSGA

Question: Which results are given for `CC(C)Nc1nc2cc(Cl)c(Cl)cc2n1[C@H]1O[C@@H](CO)[C@H](O)[C@@H]1O` [maribavir, (2S,3S,4R,5S)-2-(5,6-dichloro-2-(isopropylamino)-1H-benzo[d]imidazol-1-yl)-5-(hydroxymethyl)tetrahydrofuran-3,4-diol]?
Answer: CYP1A2 mRNA induction, % of the levels of positive controls (CYP1A2 mRNA): ≤ 11%; CYP2B6 mRNA induction, % of the levels of positive controls (CYP2B6 mRNA): ≤ 11%; KI (inactivation) (CYP3A; probe midazolam): 41.2 µM; kinact (CYP3A; probe midazolam, midazolam as substrate): 0.000195 s⁻¹; KI (inactivation) (CYP3A; probe testosterone): 167 µM; kinact (CYP3A; probe testosterone, testosterone as substrate): 0.000595 s⁻¹; AUC(0-∞), GEOMEAN RATIO PREDICTED/OBSERVED [1, 4]: 0.77; AUC(0-∞), MEAN RATIO PREDICTED/OBSERVED [1, 4]: 0.78; Cmax, GEOMEAN RATIO PREDICTED/OBSERVED [1, 4]: 0.65; Cmax, MEAN RATIO PREDICTED/OBSERVED [1, 4]: 0.66; Ratio AUC(0-∞), GEOMEAN RATIO PREDICTED/OBSERVED ([1]; with/without ketoconazole): 1.00; Ratio AUC(0-∞), MEAN RATIO PREDICTED/OBSERVED ([1]; with/without ketoconazole): 0.99; Ratio Cmax, GEOMEAN RATIO PREDICTED/OBSERVED ([1]; with/without ketoconazole): 1.06; Ratio Cmax, MEAN RATIO PREDICTED/OBSERVED ([1]; with/without ketoconazole): 1.05; Geometric Mean Ratio of Maribavir PK with/without Co-administered Drug (No Effect = 1.00), AUC [2, 5]: 0.89; Geometric Mean Ratio of Maribavir PK with/without Co-administered Drug (No Effect = 1.00), Cmax [2, 5]: 0.84; Geometric Mean Ratio of Maribavir PK with/without Co-administered Drug (No Effect = 1.00), AUC [2, 6]: 1.53; Geometric Mean Ratio of Maribavir PK with/without Co-administered Drug (No Effect = 1.00), Cmax [2, 6]: 1.10; Geometric Mean Ratio of Maribavir PK with/without Co-administered Drug (No Effect = 1.00), AUC [2, 7]: 0.40; Geometric Mean Ratio of Maribavir PK with/without Co-administered Drug (No Effect = 1.00), Cmax [2, 7]: 0.61; Geometric Mean Ratio of Maribavir PK with/without Co-administered Drug (No Effect = 1.00), Ctau ([2]; Rifampin 600 mg once daily, maribavir 400 mg twice daily, tau 12 hours): 0.18; reversible inhibition of CYP2E1 (CYP2E1): not a reversible inhibitor; also recorded: no significant inhibition; reversible inhibition of CYP2A6 (CYP2A6): not a reversible inhibitor; also recorded: no significant inhibition; reversible inhibition of CYP3A4 (CYP3A4): not a reversible inhibitor; also recorded: no significant inhibition; reversible inhibition of CYP2B6 (CYP2B6): not a reversible inhibitor; also recorded: no significant inhibition; half-life (clinical): 5 to 7 h; CL renal (clinical; po): 0.85 mL/min; effect of crushing the tablet or antacids on bioavailability (clinical; po): wasn't affected; effect of food on exposure (clinical; po): unaffected; time to peak concentrations (clinical; po): 1 to 3 h; safety/tolerability profile [3]: no limiting toxicity
